{
  "source": "patent US4962200A",
  "about": "“Nitrogen-containing compound” (Mitsui Petrochemical Industries, Ltd., priority 1987, dated 1990)",
  "data": [
    {"tested_on": "formation of peroxide lipids (rat brain homogenate)", "assay": "activity of inhibiting formation of peroxide lipids (TBA assay, rat brain homogenate supernatant)", "assay_type": "biochemical, rat (Wistar)", "details": "final concentration 10^-4 M, pH 7.4, 37° C., 30 minutes, malondialdehyde by TBA assay vs control, 100 µM", "method": "With respect to the compounds of the present invention, the activity of inhibiting formation of peroxide lipids was tested according to the following procedures.\nMale rats of the Wistar system having a body weight of 200 to 250 g were used. The rat brain was extracted by beheading and homogenized by 50 mM phosphate buffer solution (pH 7.4)(PBS), and centrifugal separation was conducted for 15 minutes under 1000 G. The supernatant was frozen at -30° C. and stored, and when the test was carried out, the frozen supernatant was thawed in running water and diluted with PBS so that the volume was trebled, whereby a living body sample was prepared.\nTwo samples were formed by adding 10 μl of a solution of the test compound (the final concentration was 10^-4 M) to 990 μl of the living body sample. One sample was incubated at 37° C. for 30 minutes and 0.2 ml of a 35% solution of perchloric acid was added to stop the reaction. The other sample was not incubated but the solution of perchloric acid was immediately added to stop the reaction. Both the reaction liquids were subjected to centrifugal separation at 3000 rpm for 15 minutes. With respect to each sample, by using 0.5 ml of the supernatant, the amount of the peroxide lipid was determined according to the TBA assay [Okawa et al., Anal. Biochem., 95. 351 (1979)], and the difference between both the measured values was determined as the amount of malondialdehyde (MDS)(the unit: nmole/mg protein). The peroxide lipid inhibition ratio was calculated from this MDA amount (A) and the control value (B) (the MDA amount obtained when the test compound was not added) according to the following formula: [formula]", "units": {"Inhibition Ratio (%) (peroxide lipid inhibition ratio)": "%"}, "values": [
      {"molecule": "Cn1cncc1CN1CCCc2ccccc21", "note": "[Compound 1]", "Inhibition Ratio (%) (peroxide lipid inhibition ratio)": 99.0},
      {"molecule": "Cc1nc(CN2CCCc3ccccc32)cs1", "note": "[Compound 3]", "Inhibition Ratio (%) (peroxide lipid inhibition ratio)": 88.7},
      {"molecule": "Cc1nc(CN2CCc3ccccc32)cs1", "note": "[Compound 4]", "Inhibition Ratio (%) (peroxide lipid inhibition ratio)": 84.6},
      {"molecule": "c1csc(CN2CCCc3ccccc32)c1", "note": "[Compound 5]", "Inhibition Ratio (%) (peroxide lipid inhibition ratio)": 93.6},
      {"molecule": "c1csc(CN2CCc3ccccc32)c1", "note": "[Compound 6]", "Inhibition Ratio (%) (peroxide lipid inhibition ratio)": 95.4},
      {"molecule": "CN(C)C(=O)n1cnc(CN2c3ccccc3CCc3ccccc32)c1", "note": "[Compound 9, 1-(N,N-dimethylcarbamoyl)-4-(10,11-dihydro-5H-dibenzo[b,f]azepin-5-ylmethyl)imidazole]", "Inhibition Ratio (%) (peroxide lipid inhibition ratio)": 94.0},
      {"molecule": "c1coc(CN2CCc3ccccc32)c1", "note": "[Compound 10]", "Inhibition Ratio (%) (peroxide lipid inhibition ratio)": 87.0},
      {"molecule": "c1coc(CN2CCOc3ccccc32)c1", "note": "[Compound 11, 4-(2-furyl)methyl-3,4-dihydro-2H-benzooxazine]", "Inhibition Ratio (%) (peroxide lipid inhibition ratio)": 56.0},
      {"molecule": "Cc1ncoc1CN1CCCc2ccccc21", "note": "[Compound 12]", "Inhibition Ratio (%) (peroxide lipid inhibition ratio)": 97.8},
      {"molecule": "c1coc(CCCN2CCCc3ccccc32)c1", "note": "[Compound 13]", "Inhibition Ratio (%) (peroxide lipid inhibition ratio)": 90.5},
      {"molecule": "c1ccc(CN2CCCc3ccccc32)nc1", "note": "[Compound 14]", "Inhibition Ratio (%) (peroxide lipid inhibition ratio)": 100.0},
      {"molecule": "CCOC(=O)c1cnc(C)nc1CN1CCCc2ccccc21", "note": "[Compound 15]", "Inhibition Ratio (%) (peroxide lipid inhibition ratio)": 100.0},
      {"molecule": "CCOC(=O)c1cnc(-c2ccccc2)nc1CN1CCCc2ccccc21", "note": "[Compound 16]", "Inhibition Ratio (%) (peroxide lipid inhibition ratio)": 100.0},
      {"molecule": "CCOC(=O)c1cncnc1CN1CCCc2ccccc21", "note": "[Compound 17]", "Inhibition Ratio (%) (peroxide lipid inhibition ratio)": 100.0},
      {"molecule": "O=C1C=C(OCCN2CCCc3ccccc32)C(=O)c2ccccc21", "note": "[Compound 18]", "Inhibition Ratio (%) (peroxide lipid inhibition ratio)": 97.9},
      {"molecule": "c1coc(CN2CCSc3ccccc32)c1", "note": "[Compound 19, 4-(2-furyl)methyl-3,4-dihydro-2H-1,4-benzothiazine]", "Inhibition Ratio (%) (peroxide lipid inhibition ratio)": 80.9},
      {"molecule": "Cc1ccc2c(c1)CCCN2Cc1ccco1", "note": "[Compound 20]", "Inhibition Ratio (%) (peroxide lipid inhibition ratio)": 85.1},
      {"molecule": "Clc1ccc2c(c1)CCCN2Cc1ccco1", "note": "[Compound 21]", "Inhibition Ratio (%) (peroxide lipid inhibition ratio)": 87.2}
    ]}
  ]
}
